This is an account of results in patent US4598084A, “Optically active derivatives of N-arylated oxazolidine-2-one, the process for preparing same and their application in therapeutics” (Delalande S.A., priority 1982, dated 1986).

Series [1] deals with T1, type A monoamine oxidase (MAO.A) (Rattus norvegicus, UniProt P21396).
T1 construct: the brains being removed, weighed, homogeneized; from tissue; host or cells: brain of orally dosed rats, homogenized
T1 sequence (P21396 1-526): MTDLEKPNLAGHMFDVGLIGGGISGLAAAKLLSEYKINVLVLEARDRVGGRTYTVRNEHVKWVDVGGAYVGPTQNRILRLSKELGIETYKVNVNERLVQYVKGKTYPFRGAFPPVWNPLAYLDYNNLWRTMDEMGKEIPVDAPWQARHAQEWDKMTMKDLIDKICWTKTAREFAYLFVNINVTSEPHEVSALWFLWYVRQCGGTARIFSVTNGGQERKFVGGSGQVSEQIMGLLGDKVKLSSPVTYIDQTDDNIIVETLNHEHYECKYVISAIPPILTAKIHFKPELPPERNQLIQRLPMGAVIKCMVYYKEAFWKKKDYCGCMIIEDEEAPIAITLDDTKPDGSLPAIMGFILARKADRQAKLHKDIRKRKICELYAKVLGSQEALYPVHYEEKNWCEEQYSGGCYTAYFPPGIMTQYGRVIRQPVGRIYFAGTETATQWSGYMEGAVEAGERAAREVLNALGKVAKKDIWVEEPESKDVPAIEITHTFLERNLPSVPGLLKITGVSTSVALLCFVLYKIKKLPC
As to the kind of experiment: ex vivo brain MAO.A inhibition after single oral dose in rats, 5-HT substrate. Conditions: Table 2, 5 mg/kg p.o., rats, read-out: % MAO inhibition effect after n hour(s), 5-HT (IMAO.A). How it is done:
(§1) ex vivo, on rats to which was administered orally a single dose of the compounds of formula (I) (or their pharmaceutically acceptable salts) or their corresponding racemic of formula (Io), in a 0.5% suspension in methylcellulose, the rats being sacrificed by being beheaded at varying times, the brains being removed, weighed, homogeneized and the determination of the MAOI activity being made by using serotonine and phenylethylamine, according to the procedure described by J. P. KAN and M. STROLIN-BENEDETTI in Life Sciences 26, 2165, (1980).

Series [2] has as its target T2, type B monoamine oxidase (MAO.B) (Rattus norvegicus, UniProt P19643).
T2 construct: the brains being removed, weighed, homogeneized; from tissue; host or cells: brain of orally dosed rats, homogenized
T2 sequence (P19643 1-520): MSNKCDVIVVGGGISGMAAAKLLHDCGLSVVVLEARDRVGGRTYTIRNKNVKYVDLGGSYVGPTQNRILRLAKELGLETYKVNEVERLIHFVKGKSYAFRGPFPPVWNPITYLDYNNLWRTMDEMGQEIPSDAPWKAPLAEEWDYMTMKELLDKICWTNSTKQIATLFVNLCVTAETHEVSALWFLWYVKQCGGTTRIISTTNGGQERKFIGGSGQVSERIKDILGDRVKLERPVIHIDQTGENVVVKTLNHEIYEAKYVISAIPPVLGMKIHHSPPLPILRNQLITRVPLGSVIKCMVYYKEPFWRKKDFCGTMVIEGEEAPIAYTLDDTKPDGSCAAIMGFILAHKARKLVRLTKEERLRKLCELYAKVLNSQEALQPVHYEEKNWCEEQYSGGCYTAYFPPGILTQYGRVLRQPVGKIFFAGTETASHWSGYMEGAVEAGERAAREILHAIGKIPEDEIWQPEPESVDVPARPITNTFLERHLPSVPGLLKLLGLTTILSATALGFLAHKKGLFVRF
As to the kind of experiment: ex vivo brain MAO.B inhibition after single oral dose in rats, PEA substrate. Conditions: for inhibition at 5 mg/kg: rat, po, Table 2, 5 mg/kg p.o., rats, read-out: % MAO inhibition effect after n hour(s), PEA (IMAO.B). How it is done:
as §1

The target of series [3] is T1, type A monoamine oxidase (MAO.A). As to the kind of experiment: in vitro MAO.A inhibition on homogenized rat brain, serotonine (5-HT) substrate. Type of series: biochemical, rats. The following applies: Table 1, rat brain homogenate, read-out: MAO.A inhibition effect (5-HT) IC 50. An excerpt:
(§2) in vitro, on the homogeneized brain of rats, by measuring the dose inhibiting by 50% (IC 50) the activity of monoamine oxidase (MAO) by taking phenylethylamine (PEA) as substrate of type B monoamine oxidase (MAO.B) and serotonine (5-HT) as substrate of type A monoamine oxidase (MAO.A), according to the procedure described by M. STROLIN BENEDETTI et al. in: Monoamine oxidase Basic and Clinical Frontiers, publishers K. KAMISO-E. USDIN-T. NAGATSO-Excepta Medica (1982)-page 209);

For the next series, the system named is mice. As to the kind of experiment: oral acute toxicity in mice (Miller and Tainter's method). Type of series: in vivo. The following applies: in words. The source says: (§3) The results obtained in the in vitro test are shown in table 1 below and the results obtained in the ex vivo test, as well as the oral acute toxicity in mice evaluated according to MILLER and TAINTER's method [Proc. Soc.

Assay in series [4]: as above
Type of series: in vivo. The following applies: mouse, in vivo; Table 2; mice, oral; read-out: Acute toxicity (mice) LD 50.
Source text: as §3

Series [5] addresses T2, type B monoamine oxidase (MAO.B). As to the kind of experiment: in vitro MAO.B inhibition on homogenized rat brain, phenylethylamine (PEA) substrate. Type of series: biochemical, rats. Conditions: Table 1, rat brain homogenate, read-out: MAO.B inhibition effect (P.E.A.) IC 50.
Source text: as §2

Read-outs that look alike come from different tables or passages of the source.

What is called inhibition is the relative decrease from the control value, in per cent. On to `CNC[C@@H]1CN(c2ccc(OCc3cccc(Cl)c3)cc2)C(=O)O1` [(Ib), [R(+)] 5-N-methylaminomethyl 3-p-(meta-chlorobenzyloxy)phenyl oxazolidine-2-one], for which the inhibition at 5 mg/kg in series [1] (1 hour) was -1%; in series [1] (2 hours) it was 0%; in series [1] (4 hours), 0%; in series [1] (8 hours) it was 1%; in series [1] (24 hours), -1%; in series [1] (48 hours), -3%. Also, the inhibition at 5 mg/kg in series [1] (72 hours) worked out at 3%; in series [2] (1 hour), 74%; in series [2] (2 hours) it was 77%; in series [2] (4 hours), 71%; in series [2] (8 hours), 61%; in series [2] (24 hours) it was 6%. In addition, the inhibition at 5 mg/kg is 5% in series [2] (48 hours) and 0% in series [2] (72 hours). For the same molecule, the specificity and reversibility entry in series [2] (in words, compared with racemic) was “much greater specificity and reversibility”. For the same molecule, in series [2] (in words, compared with racemic or dose), the level of activity entry is given as “level of activity similar to that of its racemic”. Besides, the IC50 came to 50 µM in series [3] and 0.03 µM in series [5]. Further, the “active doses relative to lethal 50 doses” value with mice is “activities at doses much less than the lethal 50 doses”. Besides, the LD50 in series [4] was greater than 1000 mg/kg.
